≈ marks a conversion by molar mass, not a printed value. Like-named read-outs stand apart in the source and are kept apart here.

Here are results for two compounds from US4034092A, “7-Acyl-3-(carboxyalkyl and carbamoylalkyl substituted oxadiazolylthiomethyl) cephalosporins” (SmithKline Corporation, priority 1976, dated 1977).

Assay [1] relates to Pseudo. aerug. HH 63. Kind of assay: in vitro MIC testing, Pseudo. aerug. HH 63. Type of assay: cell-based. On the procedure:
(§1) The compounds of Formula I have exceptional antibacterial activity against both Gram-positive and Gram-negative organisms. Minimum inhibitory concentrations (MIC's) range from 0.2 to >200 μg./ml. in in vitro testing. Test results for the compound 7-D-mandelamido-3-(5-carboxymethyl-1,3,4-oxadiazol-2-ylthiomethyl)-3-cephem-4-carboxylic acid and its disodium salt, respectively, are given below: […]

The subject of assay [2] is S. aureus SK 23390. Kind of assay: in vitro MIC testing, S. aureus SK 23390. The conditions noted are these: Staphylococcus aureus, SK23390. The assay is classed as cell-based. On the procedure: as §1
The test system of assay [3] is Kleb. pneumo. SK 4200. The assay is described as follows: in vitro MIC testing, Kleb. pneumo. SK 4200. Type of assay: cell-based. On the procedure:
as §1

Assay [4] deals with Proteus morgani 179. The assay is described as follows: in vitro MIC testing, Proteus morgani 179. The assay is classed as cell-based. On the procedure:
as §1

The subject of assay [5] is S. villaluz SK 70390. The assay is described as follows: in vitro MIC testing, S. villaluz SK 70390. The assay is classed as cell-based. On the procedure:
as §1

Assay [6] has as its system Kleb. pneumo. SK 1200. Kind of assay: in vitro MIC testing, Kleb. pneumo. SK 1200. The assay is classed as cell-based. On the procedure: as §1
Assay [7] relates to Salmonella ATCC 12176. Kind of assay: in vitro MIC testing, Salmonella ATCC 12176. Conditions: ATCC12176. The assay is classed as cell-based. On the procedure: as §1
Assay [8] deals with Entero. cloacae HH 31254. The assay is described as follows: in vitro MIC testing, Entero. cloacae HH 31254. Type of assay: cell-based. Conditions: Enterobacter cloacae, HH31254. On the procedure:
as §1

Assay [9] has as its system Kleb. pneumo. 4200. Kind of assay: in vivo mouse protection test, Kleb. pneumo. 4200. Conditions: sc, subcutaneous injection, against Kleb. pneumo. 4200. An excerpt: (§2) 4200 upon subcutaneous injection.
The test system of assay [10] is Strep. faecalis HH 34358. Kind of assay: in vitro MIC testing, Strep. faecalis HH 34358. The assay is classed as cell-based. The conditions noted are these: Enterococcus faecalis, HH34358. On the procedure: as §1
In assay [11] the test system is S. aureus HH 125. Kind of assay: in vitro MIC testing, S. aureus HH 125. The assay is classed as cell-based. Conditions: Staphylococcus aureus, HH125. On the procedure:
as §1

For assay [12], the system named is Shigella HH 117. The assay is described as follows: in vitro MIC testing, Shigella HH 117. The assay is classed as cell-based. The conditions noted are these: HH117. On the procedure: as §1
Assay [13] has as its system Serratia marc. ATCC 13880. Kind of assay: in vitro MIC testing, Serratia marc. ATCC 13880. Type of assay: cell-based. The conditions noted are these: ATCC13880. On the procedure: as §1
The test system of assay [14] is E. coli SK 12140. The assay is described as follows: in vitro MIC testing, E. coli SK 12140. Type of assay: cell-based. Conditions: Escherichia coli, SK12140. On the procedure: as §1
The subject of assay [15] is Entero. aerog. ATCC 13048. The assay is described as follows: in vitro MIC testing, Entero. aerog. ATCC 13048. The assay is classed as cell-based. On the procedure:
as §1

The subject of assay [16] is E. coli HH 33779. The assay is described as follows: in vitro MIC testing, E. coli HH 33779. Type of assay: cell-based. The conditions noted are these: Escherichia coli, HH33779. On the procedure:
as §1

In assay [17] the test system is E. coli 12140. Kind of assay: in vivo mouse protection test, E. coli 12140. The conditions noted are these: Escherichia coli, sc; subcutaneous injection; against E. coli 12140.
From the text: as §2

For the compound `O=C(O)Cc1nnc(SCC2=C(C(=O)O)N3C(=O)C(NC(=O)[C@H](O)c4ccccc4)[C@H]3SC2)o1` (stereo partly drawn) [7-D-Mandelamido-3-(5-carboxymethyl-1,3,4-oxadiazol-2-ylthiomethyl)-3-cephem-4-carboxylic acid], the MIC (commonly the smallest concentration in the dilution series that meets the test's criterion for growth inhibition) in [1] was above 200 mg/L; in [2] (in vitro, S. aureus SK 23390, read-out: MIC), 0.4 mg/L (≈ 0.79 µM); in assay [3], 0.8 mg/L (≈ 1.58 µM); in [4] it was 6.3 mg/L (≈ 12.4 µM); in assay [5], 50 mg/L (≈ 98.7 µM); in assay [6] (in vitro, Kleb. pneumo. SK 1200, read-out: MIC), 0.8 mg/L (≈ 1.58 µM). Moreover, the MIC in [7] was determined as 0.8 mg/L (≈ 1.58 µM); in [8] it was 1.6 mg/L (≈ 3.16 µM); in assay [10] (in vitro, Strep. faecalis HH 34358, read-out: MIC) it was 12.5 mg/L (≈ 24.7 µM); in assay [11] (in vitro, S. aureus HH 125, read-out: MIC), 1.6 mg/L (≈ 3.16 µM); in assay [12], 0.2 mg/L (≈ 0.395 µM); in assay [13] (in vitro, Serratia marc. ATCC 13880, read-out: MIC), 25 mg/L (≈ 49.4 µM). In addition, the minimum inhibitory concentration (MIC) is 0.8 mg/L (≈ 1.58 µM) in assay [14], 3.1 mg/L (≈ 6.12 µM) in assay [15] and 1.6 mg/L (≈ 3.16 µM) in assay [16]. Besides, the results for the ED50 in assay [9] and in assay [17] were 0.86 mg/kg and 1.56 mg/kg, respectively.

Take `O=C([O-])Cc1nnc(SCC2=C(C(=O)[O-])N3C(=O)C(NC(=O)[C@H](O)c4ccccc4)[C@H]3SC2)o1.[Na+].[Na+]` (stereo partly drawn) [7-D-Mandelamido-3-(5-carboxymethyl-1,3,4-oxadiazol-2-ylthiomethyl)-3-cephem-4-carboxylic acid disodium salt]: the minimal inhibitory concentration (MIC) in assay [1] is above 200 mg/L; in assay [2], 0.8 mg/L; in assay [5] it was 200 mg/L; in assay [6] it was 0.4 mg/L; in assay [7], 0.8 mg/L; in [10] it was 50 mg/L. Also, the MIC amounted to 3.1 mg/L in [11]; 0.4 mg/L in assay [12]; 50 mg/L in assay [13] (Serratia); 0.8 mg/L in assay [14]; 3.1 mg/L in [16].
